Measurements reported in the supplement of paper PMC7244745.
± gives the uncertainty stated by the source.

Legend:
[1] = tested on: Klebsiella pneumoniae ATCC 13882; assay: onset of ureolytic pH increase; higher = more delayed ureolysis (inhibition)
Procedure: (§1)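 Klebsiella pneumoniae ATCC 13882 (start OD600 0.05) grown in M9U medium with 40 mM urea and phenol red plus inhibitor, in triplicate in 96-well plates. A557 and OD630 were read every 15 min for 24 h. Ureolysis was followed as the pH-related A557-A630: onset time, Gompertz-fit rate and final value. Growth was followed as OD630.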

[2] = tested on: Klebsiella pneumoniae ATCC 13882; assay: rate of pH (A557-A630) increase, Gompertz fit (10^-4 s-1); higher = faster ureolysis; extreme values may be limits of the assay
Procedure: as §1

[3] = tested on: Klebsiella pneumoniae ATCC 13882; assay: final OD630 (growth) after 24 h; higher = more bacterial growth; extreme values may be limits of the assay
Procedure: as §1

[4] = tested on: Klebsiella pneumoniae ATCC 13882; assay: final pH-related absorbance (A557-A630) after 24 h (absorbance units); higher = more ureolysis; extreme values may be limits of the assay
Procedure: as §1

Compound	onset of ureolytic pH increase ([1]; 0.1 mM) [h]	onset of ureolytic pH increase ([1]; 1 mM) [h]	onset of ureolytic pH increase ([1]; 10 mM) [h]	rate of pH ([2]; 0.1 mM)	rate of pH ([2]; 1 mM)	rate of pH ([2]; 10 mM)	final OD630 ([3]; 0.1 mM)	final OD630 ([3]; 1 mM)	final OD630 ([3]; 10 mM)	final pH-related absorbance ([4]; 0.1 mM)	final pH-related absorbance ([4]; 1 mM)	final pH-related absorbance ([4]; 10 mM)	further results
O=C(O)CCC(CC(=O)O)C(=O)O (centres undefined) [1,2,4-butanetricarboxylic acid]	11.425 ± 0.00233	11.31 ± 0.055	> 15	1.526 ± 0.014	1.58 ± 0.019	0	0.424 ± 0.0051	0.433 ± 0.0031	0	0.33 ± 0.0058	0.277 ± 0.0026	0	–
NC(=S)Nc1cccc(C(=O)O)c1 [1-(3-Carboxyphenyl)-2-thiourea]	–	–	–	–	–	–	–	–	–	–	–	–	onset of ureolytic pH increase ([1]; 0.00075 mM): 7.27 ± 0.108 h; onset of ureolytic pH increase ([1]; 0.0075 mM): 7.06 ± 0.3 h; onset of ureolytic pH increase ([1]; 0.075 mM): 7.25 ± 0.107 h; rate of pH ([2]; 0.00075 mM): 1.92 ± 0.078; rate of pH ([2]; 0.0075 mM): 2.06 ± 0.18; rate of pH ([2]; 0.075 mM): 2.15 ± 0.048; final OD630 ([3]; 0.00075 mM): 0.489 ± 0.005; final OD630 ([3]; 0.0075 mM): 0.51 ± 0.017; final OD630 ([3]; 0.075 mM): 0.49 ± 0.01; final pH-related absorbance ([4]; 0.00075 mM): 0.246 ± 0.012; final pH-related absorbance ([4]; 0.0075 mM): 0.27 ± 0.023; final pH-related absorbance ([4]; 0.075 mM): 0.24 ± 0.011
O[C@@H](CS)[C@@H](O)CS [1.4-dithiothreitol]	10.2 ± 0.317	16.3 ± 0.317	16.84 ± 0.118	1.81 ± 0.074	0.11 ± 0.0047	0.0642 ± 0.0044	0.432 ± 0.079	0.306 ± 0.0084	0.264 ± 0.0063	0.381 ± 0.013	0.274 ± 0.02	0.137 ± 0.013	–
O=C1CC(=O)NC(=S)N1 [2-Thiobarbituric acid]	–	–	–	–	–	–	–	–	–	–	–	–	onset of ureolytic pH increase ([1]; 0.012 mM): 9.28 ± 0.0217 h; onset of ureolytic pH increase ([1]; 0.118 mM): 9.68 ± 0.4 h; onset of ureolytic pH increase ([1]; 1.18 mM): > 15 h; rate of pH ([2]; 0.012 mM): 2.14 ± 0.06; rate of pH ([2]; 0.118 mM): 2.04 ± 0.024; rate of pH ([2]; 1.18 mM): 0; final OD630 ([3]; 0.012 mM): 0.449 ± 0.007; final OD630 ([3]; 0.118 mM): 0.437 ± 0.008; final OD630 ([3]; 1.18 mM): 0.303 ± 0.028; final pH-related absorbance ([4]; 0.012 mM): 0.201 ± 0.008; final pH-related absorbance ([4]; 0.118 mM): 0.194 ± 0.006; final pH-related absorbance ([4]; 1.18 mM): 0
O=[N+]([O-])C(Br)(CO)CO [2-bromo-2-nitropropane-1.3-diol]	> 25	> 25	> 25	0	0	0	0	0	0	0	0	0	–
OCCS [2-mercaptoethanol]	10 ± 0.125	> 25	> 25	1.72 ± 0.061	0	0	0.416 ± 0.0027	0.208 ± 0.0036	0.155 ± 0.0041	0.19 ± 0.0096	0	0	–
CC1=CC(=O)C(C)=CC1=O [2.5-dimethyl-1.4-benzoquinone]	–	–	–	–	–	–	–	–	–	–	–	–	onset of ureolytic pH increase ([1]; 0.011 mM): 9.905 ± 0.04 h; onset of ureolytic pH increase ([1]; 0.107 mM): 15.8 h; onset of ureolytic pH increase ([1]; 1.07 mM): 0 min; rate of pH ([2]; 0.011 mM): 1.46 ± 0.047; rate of pH ([2]; 0.107 mM): 1.97; rate of pH ([2]; 1.07 mM): 0.535 ± 0.0079; final OD630 ([3]; 0.011 mM): 0.33 ± 0.011; final OD630 ([3]; 0.107 mM): 0.336; final OD630 ([3]; 1.07 mM): 0; final pH-related absorbance ([4]; 0.011 mM): 0.152 ± 0.0068; final pH-related absorbance ([4]; 0.107 mM): 0.116; final pH-related absorbance ([4]; 1.07 mM): 0.475 ± 0.011
O=c1oc2ccccc2c(O)c1Cc1c(O)c2ccccc2oc1=O [3.3'-methylene-bis-(4-hydroxycoumarin)]	–	–	–	–	–	–	–	–	–	–	–	–	onset of ureolytic pH increase ([1]; 0.0035 mM): 9.383 ± 0.0183 h; onset of ureolytic pH increase ([1]; 0.035 mM): 9.87 ± 0.5 h; onset of ureolytic pH increase ([1]; 0.35 mM): 10.2 ± 0.148 h; rate of pH ([2]; 0.0035 mM): 1.45 ± 0.019; rate of pH ([2]; 0.035 mM): 1.44 ± 0.039; rate of pH ([2]; 0.35 mM): 1.4; final OD630 ([3]; 0.0035 mM): 0.424 ± 0.0021; final OD630 ([3]; 0.035 mM): 0.409 ± 0.012; final OD630 ([3]; 0.35 mM): 0.403 ± 0.0058; final pH-related absorbance ([4]; 0.0035 mM): 0.161 ± 0.0024; final pH-related absorbance ([4]; 0.035 mM): 0.158 ± 0.0007; final pH-related absorbance ([4]; 0.35 mM): 0.16 ± 0.0029
NCCNCCNCCN [Triethylenetetraamine]	–	–	–	–	–	–	0.448 ± 0.091	0.384 ± 0.017	0	–	–	–	–
